Reference: PubChem BioAssay (NCI)
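Each compound was tested at five concentrations against cells in 96-well plates for 48 hours. TGI is the concentration that stops growth completely.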

Tests used:
Experiment in all cases: DTP human tumour cell line panel, 48 h
[1] = system: IGROV1 ovarian
[2] = system: M14 melanoma
[3] = system: COLO 205 colon
[4] = system: DMS 273 small cell lung
[5] = system: XF 498 CNS
[6] = system: NCI-H522 lung
[7] = system: NCI-H23 lung
[8] = system: OVCAR-8 ovarian
[9] = system: SNB-78 CNS
[10] = system: RPMI-8226 leukemia
[11] = system: HT29 colon
[12] = system: A498 renal
[13] = system: MOLT-4 leukemia
[14] = system: SNB-19 CNS
[15] = system: DLD-1 colon
[16] = system: CCRF-CEM leukemia
[17] = system: ACHN renal
[18] = system: A549 NSCLC
[19] = system: LXFL 529 NSCLC
[20] = system: SK-OV-3 ovarian
[21] = system: U251 CNS
[22] = system: EKVX NSCLC
[23] = system: K-562 leukemia
[24] = system: SF-539 CNS
[25] = system: SNB-75 CNS
[26] = system: UACC-62 melanoma
[27] = system: KM12 colon
[28] = system: M19-MEL melanoma
[29] = system: HCT-116 colon
[30] = system: CAKI-1 renal
[31] = system: SK-MEL-28 melanoma
[32] = system: HOP-92 NSCLC
[33] = system: NCI-H460 lung
[34] = system: OVCAR-3 ovarian
[35] = system: SF-268 CNS
[36] = system: UO-31 renal
[37] = system: MALME-3M melanoma
[38] = system: TK-10 renal
[39] = system: HOP-62 NSCLC
[40] = system: SR leukemia
[41] = system: SN12C renal
[42] = system: SW-620 colon
[43] = system: HCT-15 colon
[44] = system: 786-0 renal
[45] = system: SK-MEL-5 melanoma
[46] = system: SK-MEL-2 melanoma
[47] = system: DMS 114 small cell lung
[48] = system: SF-295 CNS
[49] = system: HL-60(TB) leukemia
[50] = system: RXF 393 renal
[51] = system: OVCAR-4 ovarian
[52] = system: NCI/ADR-RES ovarian
[53] = system: PC-3 prostate
[54] = system: MDA-MB-231 breast
[55] = system: T-47D breast
[56] = system: BT-549 breast
[57] = system: UACC-257 melanoma
[58] = system: MDA-N
[59] = system: LOX IMVI melanoma
[60] = system: DU-145 prostate
[61] = system: HCC-2998 colon
[62] = system: MCF7 breast
[63] = system: OVCAR-5 ovarian
[64] = system: HS 578T breast
[65] = system: MDA-MB-435
[66] = system: NCI-H226 lung

In the case of `Cn1c(=O)c2[nH]cnc2n(CC(N)=O)c1=O`, the TGI [1] is reported as > 100 µM, the TGI [2] is reported as > 100 µM and the TGI [3] is reported as > 100 µM. For the same molecule, the TGI [4] was > 100 µM, the TGI [5] was > 100 µM and the TGI [6] was > 100 µM. The TGI [7] was > 100 µM, the TGI [8] was > 100 µM and the TGI [9] was > 100 µM. The TGI [10] was > 100 µM, the TGI [11] was > 100 µM and the TGI [12] was > 100 µM. The TGI [13] was > 100 µM, the TGI [14] was > 100 µM and the TGI [15] was > 100 µM. For the same molecule, the TGI [16] was > 100 µM, the TGI [17] was > 100 µM and the TGI [18] was > 100 µM. The TGI [19] was > 100 µM, the TGI [20] was > 100 µM and the TGI [21] was > 100 µM. For the same molecule, the TGI [22] was > 100 µM, the TGI [23] was > 100 µM and the TGI [24] was > 100 µM. For the same molecule, the TGI [25] was > 100 µM, the TGI [26] was > 100 µM and the TGI [27] was > 100 µM. The TGI [28] was > 100 µM, the TGI [29] was > 100 µM and the TGI [30] was > 100 µM. The TGI [31] was > 100 µM, the TGI [32] was > 100 µM and the TGI [33] was > 100 µM. The TGI [34] was > 100 µM, the TGI [35] was > 100 µM and the TGI [36] was > 100 µM. For the same molecule, the TGI [37] was > 100 µM, the TGI [38] was > 100 µM and the TGI [39] was > 100 µM. The TGI [40] was > 100 µM, the TGI [41] was > 100 µM and the TGI [42] was > 100 µM. The TGI [43] was > 100 µM, the TGI [44] was > 100 µM and the TGI [45] was > 100 µM. The TGI [46] was > 100 µM and the TGI [47] was > 100 µM.
`CC1CN=C(c2cccc(-c3nc(-c4cccc(C5=NCC(C)N5)c4)nc(N(C)C)n3)c2)N1` (stereo unspecified) was tested, and the TGI [1] was 18.4 µM, the TGI [2] was 13 µM and the TGI [3] was 2.5 µM. For the same molecule, the TGI [48] was 14.3 µM, the TGI [49] was 4.81 µM and the TGI [6] was 2.51 µM. It also gave a TGI [7] of 7.77 µM, a TGI [8] of 11.6 µM and a TGI [50] of 11.8 µM. The TGI [51] was 2.72 µM, the TGI [10] was 6.87 µM and the TGI [11] was 5.48 µM. It also gave a TGI [52] of 35.9 µM, a TGI [12] of 5.99 µM and a TGI [53] of 3.31 µM. It also gave a TGI [13] of 2.7 µM, a TGI [54] of 3.48 µM and a TGI [14] of 5.27 µM. It also gave a TGI [55] of 15.1 µM, a TGI [16] of 3.45 µM and a TGI [17] of 10.1 µM. The TGI [56] was 13.9 µM, the TGI [18] was 9.27 µM and the TGI [20] was 4.61 µM. It also gave a TGI [57] of 11 µM, a TGI [58] of 4.08 µM and a TGI [21] of 2.13 µM. For the same molecule, the TGI [22] was 8.64 µM, the TGI [23] was 2.77 µM and the TGI [24] was 1.66 µM. It also gave a TGI [25] of 5.13 µM, a TGI [59] of 2.6 µM and a TGI [26] of 3.83 µM. It also gave a TGI [27] of 7.72 µM, a TGI [29] of 2.49 µM and a TGI [30] of 32.2 µM. For the same molecule, the TGI [31] was 13.2 µM, the TGI [32] was 20.3 µM and the TGI [33] was 4.38 µM. For the same molecule, the TGI [34] was 4.19 µM, the TGI [35] was 10.7 µM and the TGI [36] was 13.4 µM. The TGI [37] was 14.8 µM, the TGI [60] was 7.14 µM and the TGI [61] was 2.39 µM. It also gave a TGI [38] of 9.76 µM, a TGI [62] of 3.33 µM and a TGI [39] of 5.9 µM. For the same molecule, the TGI [40] was 1.96 µM, the TGI [41] was 3.46 µM and the TGI [63] was 10.2 µM. It also gave a TGI [64] of 17.1 µM, a TGI [42] of 3.72 µM and a TGI [65] of 2.61 µM. The TGI [43] was 24.7 µM, the TGI [44] was 5.67 µM and the TGI [45] was 7.93 µM. It also gave a TGI [46] of 4.64 µM and a TGI [66] of 6.47 µM.
